Measured values from patent publication US4968690A (priority 1989, dated 1990).
Where two headings read alike, the source gives them in different places.

Columns and labels:
[1] = test system: enzyme which hydrolyzes S-adenosyl-L-homocysteine (AdoHcy); settings: background; cited from earlier work
[2] = background; cited from earlier work
[3] = background; cited from earlier work; remark: listed apart in the source
HL-60 cells [4] = test: Cell viability / acute cytotoxicity in HL-60 cells; type: cell-based, human
Excerpt: This reduced toxicity provides excellent selectivity and potency as an antiviral agent.

[5] = test system: Dengue virus Type II, strain 16681; test: Antiviral effect, Dengue II in Vero E6 cells (plaque reduction); type: cell-based; settings: Vero C1008, read-out: % PFU Reduction, Dengue II
[6] = test system: Polio Type III virus (Sabin oral vaccine strain); test: microbe, parasite or virus in culture; type: cell-based
[7] = test system: Coxsackie A9 virus, strain 1861; test: Antiviral effect, Coxsackie A9 in Viro E6 cells (plaque reduction); type: cell-based; settings: read-out: % PFU Reduction, Coxsackie 9A
[8] = test system: cells used to support virus growth; test: Toxicity to cells used to support virus growth; type: cell-based; settings: listed concentrations 50, 25, 5 μg/ml
Excerpt: ^(a) Concentrations listed were nontoxic to cells used to support
^(a) Concentrations listed were noncytotoxic to cells used to support

[9] = target: hamster liver adenosine-homocystine (AdoHyc) hydrolase (Mesocricetus auratus, UniProt A0A1U7RAJ1); test: Inhibition of hamster liver AdoHcy hydrolase
[10] = test system: Herpes Simplex Type II virus, strain 28382; test: Antiviral effect, Herpes Simplex II in mink lung cells (plaque reduction); type: cell-based; settings: for inhibition at 5 µg/mL: 5 μg/ml; for inhibition at 25 µg/mL: 25 μg/ml
Excerpt: ^(b) Herpes Simplex Type II virus, strain 28382 in mink lung cells.
^(d) Plaque forming units (PFU) is a measure of the infectivity of th
^(e) Multiplicity of infection (MOI) 2.0 PFU/ml.

[11] = test system: Adenovirus Type 7, strain V1012; test: Antiviral effect, Adenovirus 7 in Hep2 cells (plaque reduction); type: cell-based
Excerpt: ^(c) Adenovirus Type 7, strain V1012 in Hep2 cells.

[12] = test system: Dengue virus Type II, strain 16681; test: Antiviral effect, Dengue Type II in BHK21 cells (plaque reduction); type: cell-based; settings: for inhibition at 5 µg/mL / inhibition at 25 µg/mL / inhibition at 50 µg/mL: Dengue virus, BHK-21, BHK21 cells, read-out: % PFU Reduction, Dengue Type II; for inhibition at 5 µg/mL: 5 μg/ml; for inhibition at 25 µg/mL: 25 μg/ml; for inhibition at 50 µg/mL: 50 μg/ml
HL-60 cells [13] = test: Growth inhibition and differentiation of HL-60 cells (nitroblue tetrazolium reduction); type: cell-based, human
Excerpt: (§1) The effect of this compound on differentiation, and nucleic acid and nucleotide biosynthesis were examined in the malignant human promyelocytic leukemia cell line, HL-60. […] During this exposure interval, pronounced differentiation to mature myeloid cells occurred wherein 95% of the cell population reduced nitroblue tetrazolium four days after exposure to 10^-7 M CPE-C.

[14] = test system: DNA synthesis / RNA synthesis in HL-60 cells; test: DNA and RNA synthesis in HL-60 cells; type: cell-based, human
Excerpt: as §1

c-myc mRNA = c-myc mRNA levels in HL-60 cells; type: cell-based, human; settings: preceding induction of mature myeloid cells
Excerpt: as §1

[15] = test system: CTP, UTP, ATP, GTP levels in HL-60 cells; test: Nucleotide (CTP, UTP, ATP, GTP) levels in HL-60 cells; type: cell-based, human
Excerpt: as §1

L1210 tumor cells = test: Cytotoxicity against L1210 tumor cells in culture; type: cell-based; settings: Mus musculus, 48 hour exposure
viruses = test: General antiviral evaluation; type: cell-based; settings: compared with CPE-C
H.Ep.-2 cells = settings: background; cited from earlier work
L1210 cells = settings: background; cited from earlier work
L1210 leukemia = settings: background; cited from earlier work
quiescent normal cells = settings: subtoxic concentrations; cited from earlier work
malignant cell lines = settings: subtoxic concentrations; cited from earlier work
adenosine deaminase = settings: background; cited from earlier work
[16] = read-out: % PFU Reduction, Polio III
[17] = read-out: % PFU Reduction, Polio Type III
[18] = mink lung cells, first value of cell, presumably MOI 2.0 PFU/ml, read-out: % PFU Reduction, Herpes Simplex II (first value)
[19] = mink lung cells, second value of cell, read-out: % PFU Reduction, Herpes Simplex II (second value)

3-deazaaristeromycin
inhibition of AdoHcy-hydrolyzing enzyme (in words) [1]: very potent and specific inhibitor
phosphorylation and deamination [2]: resistance towards phosphorylation and deamination
side effects [3]: devoid of some of the undesirable side effects

Nc1nccc2c1ncn2[C@@H]1O[C@H](CO)[C@@H](O)[C@H]1O [3-deazaadenosine]
phosphorylation and deamination [2]: resistance towards phosphorylation and deamination

Nc1nccc2c1ncn2[C@@H]1C=C(CO)[C@@H](O)[C@H]1O [3-Deazaneplanocin A, 4-Amino-1-[(1'R,2'S,3'R)-4'-hydroxymethyl-2',3'-dihydroxy-4'-cyclopenten-1'-yl]imidazo[4,5-c]pyridine]
toxicity (in words) (HL-60 cells [4]; summary statement, compared with neplanocin A): without the toxicity of neplanocin A
change in cell viability (HL-60 cells [4]; two days of continuous exposure): Little or no change in cell viability
inhibition at 5 µg/mL [5]: 14.2%
inhibition at 25 µg/mL [5]: 95%
inhibition at 50 µg/mL [5]: 98.9%
inhibition at 5 µg/mL [6, 16]: 44.4%
inhibition at 25 µg/mL [6, 16]: 77.7%
inhibition at 50 µg/mL [6, 16]: 83.3%
inhibition at 5 µg/mL [7]: 69.4%
inhibition at 25 µg/mL [7]: 77.2%
inhibition at 50 µg/mL [7]: 89.4%
toxicity to cells used to support virus growth [8]: nontoxic
Ki [9]: 0.05 nM
inhibition of AdoHyc hydrolase (in words) ([9]; summary statement): particularly potent inhibitor
mode of inhibition ([9]; with adenosine): competitive inhibitor

Nc1ccn([C@@H]2C=C(CO)[C@@H](O)[C@H]2O)c(=O)n1 [CPE-C, 4-amino-1-[(1'R,2'S,3'R)-4'-hydroxymethyl-4'-cyclopenten-1'-yl]-2(1H)pyrimidinone]
inhibition at 5 µg/mL [6, 17]: 73.2%
inhibition at 25 µg/mL [6, 17]: 82.1%
inhibition at 50 µg/mL [6, 17]: 94.6%
inhibition at 5 µg/mL [10, 18]: 98.7%
inhibition at 5 µg/mL [10, 19]: 98.6%
inhibition at 25 µg/mL [10, 18]: 95.7%
inhibition at 25 µg/mL [10, 19]: 99.5%
inhibition at 50 µg/mL ([10]; 50 μg/ml, mink lung cells, second value of cell, read-out: % PFU Reduction, Herpes Simplex II (second value)): 100%
antiviral activity (in words), Herpes Simplex Type II ([10]; non-cytotoxic concentrations): excellent activity
inhibition at 50 µg/mL ([10]; read-out: % PFU Reduction, Herpes Simplex II (first value)): 97.4%
inhibition at 5 µg/mL ([11]; Human mastadenovirus B, HEp-2, 5 μg/ml, Hep2 cells, read-out: % PFU Reduction, Adenovirus 7): 70%
inhibition at 25 µg/mL ([11]; Human mastadenovirus B, HEp-2, 25 μg/ml, Hep2 cells, read-out: % PFU Reduction, Adenovirus 7): 80%
inhibition at 50 µg/mL ([11]; Human mastadenovirus B, HEp-2, 50 μg/ml, Hep2 cells, read-out: % PFU Reduction, Adenovirus 7): 94%
antiviral activity (in words), Adenovirus Type 7 ([11]; non-cytotoxic concentrations): excellent activity
inhibition at 5 µg/mL [12]: 0%
inhibition at 25 µg/mL [12]: 2.5%
inhibition at 50 µg/mL [12]: 95%
inhibition of cell growth (HL-60 cells [13]; continuous exposure for 5 days, 10^-8 to 10^-6 M): progressive inhibition of cell growth
differentiation to a non-malignant phenotype (HL-60 cells [13]; continuous exposure for 5 days, 10^-8 to 10^-6 M, nitroblue tetrazolium reduction): differentiation to a non-malignant phenotype
cell population that reduced nitroblue tetrazolium (HL-60 cells [13]; four days after exposure to 10^-7 M): 95 % of the cell population
activity as cancer cell differentiating agent (in words) (HL-60 cells [13]; summary statement): potent cancer cell differentiating agent
RNA synthesis ([14]; 10^-7 M, relative to DNA synthesis): inhibited to a lesser extent
activity at 0.1 µM ([14]; Homo sapiens, HL-60, 24 hrs. after exposure to 10^-7 M): 10%
c-myc mRNA levels (c-myc mRNA): inhibition of c-myc mRNA levels which was more pronounced than the reduction in total cellular RNA synthesis
level of CTP (in words) ([15]; during CPE-C treatment): rapid and pronounced inhibition
level of UTP, ATP or GTP ([15]; during CPE-C treatment): not of UTP, ATP or GTP
CTP levels following drug removal ([15]; following drug removal): sustained reduction in CTP levels
toxicity to cells used to support virus growth [8]: noncytotoxic

Nc1ncnc2c1nnn2[C@@H]1C=C(CO)[C@@H](O)[C@H]1O [Formula 8-Aza-CPE-A, 7-Amino-3-[(1'R,2'S,3'R)-4'-hydroxymethyl-2',3'-dihydroxy-4'-cyclopenten-1'-yl]-3H-1,2,3-triazolo[4,5-d]pyrimidine]
IC50 (L1210 tumor cells): 3000 nM

Nc1ncnc2c1ncn2[C@@H]1C=C(CO)[C@@H](O)[C@H]1O [Neplanocin A, 9-[(1'R,2'S,3'R)-4-Hydroxymethyl-2',3'-dihydroxy-4-cyclopenten-1'-yl]adenine]
toxicity to HL-60 cells (HL-60 cells [4]; 24 hrs. exposure, equimolar concentration, vs 3-deazaneplanocin): more toxic
inhibition of AdoHcy-hydrolyzing enzyme (in words) [1]: potent inhibitor
phosphorylation [2]: readily phosphorylated
side effects [3]: multiplicity of side effects including cytotoxicity

O=c1ccn([C@@H]2C=C(CO)[C@@H](O)[C@H]2O)c(=O)[nH]1 [CPE-U]
antiviral activity (in words), Dengue Type II [12]: good activity
inhibition at 5 µg/mL [12]: 2%
inhibition at 25 µg/mL [12]: 91%
inhibition at 50 µg/mL [12]: 93%
general antiviral activity (in words) (viruses): less effective as a general antiviral agent
toxicity to cells used to support virus growth [8]: noncytotoxic

Nc1ncnc2c1ncn2[C@@H]1C[C@H](CO)[C@@H](O)[C@H]1O [C-Ado]
cytotoxicity to H.Ep.-2 cells in culture (H.Ep.-2 cells): highly cytotoxic
cytotoxicity to L1210 cells in culture (L1210 cells): highly cytotoxic
activity in in vivo mouse L1210 model (L1210 leukemia): inactivity
cell proliferation of quiescent normal cells (quiescent normal cells): induced cell proliferation
growth in malignant cell lines (malignant cell lines): inhibited growth
affinity for adenosine deaminase relative to adenosine (adenosine deaminase): hundredfold lower
deamination by adenosine deaminase (adenosine deaminase): also deaminated by adenosine deaminase
